Patent publication US5087627A, “Agent for treatment of disorders of the cerebro-neural transmission system” (Santen Pharmaceutical Co., Ltd., priority 1989, dated 1992)
Counter-ions that a name gives are not always drawn. Like-named read-outs stand apart in the source and are kept apart here.

Experiments:
[1] = molecular target: T1, 5-HT2 receptor (Oryctolagus cuniculus, UniProt G1SYA7); experiment: antagonistic test against 5-HT2 using vessel (thoracic aorta) of rabbit, 5-HT-induced contraction; set-up: species or system tissue, rabbit (Japanese white)
T1 construct: The isolated arteries were helically cut into strips; from tissue; host or cells: thoracic aorta of Japanese white rabbit (helical strips)
T1 sequence (G1SYA7 1-469): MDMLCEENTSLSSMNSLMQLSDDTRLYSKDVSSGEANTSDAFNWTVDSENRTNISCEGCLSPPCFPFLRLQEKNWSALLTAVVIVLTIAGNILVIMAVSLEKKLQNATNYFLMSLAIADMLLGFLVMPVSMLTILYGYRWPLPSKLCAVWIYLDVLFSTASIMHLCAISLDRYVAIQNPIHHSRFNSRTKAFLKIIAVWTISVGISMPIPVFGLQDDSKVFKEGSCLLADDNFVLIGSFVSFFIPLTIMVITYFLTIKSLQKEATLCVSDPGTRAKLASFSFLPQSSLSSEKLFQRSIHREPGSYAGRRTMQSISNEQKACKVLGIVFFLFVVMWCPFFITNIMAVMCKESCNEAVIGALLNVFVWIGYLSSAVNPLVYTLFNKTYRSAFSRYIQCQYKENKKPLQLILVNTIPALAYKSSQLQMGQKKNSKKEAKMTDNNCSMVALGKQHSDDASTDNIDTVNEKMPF
Description: Therefore, in this test, the efficacy of the Compound was examined using thoracic aorta of rabbit.
Japanese white rabbits were sacrificed by cervical fracture and exsanguinated. Thoracic aortas were exciesd rapidly. The isolated arteries were helically cut into strips, approximately 3 mm wide, and suspended in 20 ml organ bath chambers containing Krebs-Henseleit solution. Resting tensions of aortas were maintained in 1.5 g. The organ bath chambers were maintained at 37° C. and aerated continuously with 95% O2 -5% CO2.
After equilibration, 5-HT (10^-6 M) was added into each organ bath chamber. After the 5-HT-induced contraction was ascertained to be constant and reproducible, each test compound were added and 30 minutes after 5-HT was added again, and their effect on 5-HT induced contraction was examined.
The contraction was measured with various concentrations of the test compound. According to the difference between the contraction caused by pre-treatment with the test compound and by 5-HT alone, the concentration which can inhibit 50% of the contraction caused by 5-HT alone was calculated (IC50).

[2] = test system: CXM - induced amnesia (impairment of memory); set-up: species or system mice; settings: mouse, in vivo
[3] = test system: PCA - induced amnesia (impairment of memory); experiment: one-trial passive avoidance test in mice, PCA - induced amnesia model
[4] = in words, prior art; cited from earlier work

Compound: c1ccc(CC(c2ccccc2)N2CCN(CCOc3ccc4c(c3)OCO4)CC2)cc1 (racemic) [compound No. 7, (±)-1-(1,2-Diphenyl)ethyl-4-[2-(3,4-methylenedioxyphenoxy)ethyl]piperazine dihydrochloride]
- IC50 [1]: 2.7 µM
- step-down latency (median) [2]: 123.9 s
- step-down latency (median) ([3]; mouse, in vivo): 155.1 s

Compound: COc1ccc(CCN2CCN(C(Cc3ccccc3)c3ccncc3)CC2)cc1OC (racemic) [compound 8, (±)-1-[2-Phenyl-1-(4-pyridyl)ethyl]-4-[2-(3,4-dimethoxyphenyl)ethyl]piperazine dioxalate]
- IC50 [1]: 7 µM

Compound: c1ccc(CC(c2cccnc2)N2CCN(CCOc3ccc4c(c3)OCO4)CC2)cc1 (racemic) [compound 9, (±)-1-[(2-Phenyl)-1-(3-pyridyl)ethyl]-4-[2-(3,4-methylenedioxyphenoxy)ethyl]piperazine dioxalate]
- IC50 [1]: 4.8 µM

Compound: Fc1ccc(CC(c2ccc(F)cc2)N2CCN(CCOc3ccc4c(c3)OCO4)CC2)cc1 (racemic) [compound No. 10, (±)-1-[1,2-Bis(4-fluorophenyl)]ethyl-4-[2-[(3,4-methylenedioxy)phenoxy]ethyl]piperazine dihydrochloride]
- IC50 ([1]; rabbit thoracic aorta strips, 5-HT 10^-6 M, 30 minutes pre-treatment, 37° C., read-out: IC50 (concentration which can inhibit 50% of the contraction caused by 5-HT alone)): 2.1 µM
- step-down latency (median) ([3]; PCA 5 mg/kg i.p., test compound 1.25 mg/kg p.o., 24 h after training, cut off 300 sec): 206.3 s

Compound: CN(C)C(Cc1ccccc1)c1ccccc1 (single isomer, unassigned; (-)) [lefetamine, (-)-N,N-dimethyl-1,2-diphenylethylamine]
- analgesic effect [4]: excellent analgesic effect
